BindingDB's records for patent US10851102 (Theravance Biopharma R&D Ip, 2020)

Legend:
[1] = target: Tyrosine-protein kinase JAK2 (Homo sapiens, UniProt O60674)
[2] = target: T1, Tyrosine-protein kinase JAK3 (Homo sapiens, UniProt P52333)
T1 sequence (P52333 whole entry): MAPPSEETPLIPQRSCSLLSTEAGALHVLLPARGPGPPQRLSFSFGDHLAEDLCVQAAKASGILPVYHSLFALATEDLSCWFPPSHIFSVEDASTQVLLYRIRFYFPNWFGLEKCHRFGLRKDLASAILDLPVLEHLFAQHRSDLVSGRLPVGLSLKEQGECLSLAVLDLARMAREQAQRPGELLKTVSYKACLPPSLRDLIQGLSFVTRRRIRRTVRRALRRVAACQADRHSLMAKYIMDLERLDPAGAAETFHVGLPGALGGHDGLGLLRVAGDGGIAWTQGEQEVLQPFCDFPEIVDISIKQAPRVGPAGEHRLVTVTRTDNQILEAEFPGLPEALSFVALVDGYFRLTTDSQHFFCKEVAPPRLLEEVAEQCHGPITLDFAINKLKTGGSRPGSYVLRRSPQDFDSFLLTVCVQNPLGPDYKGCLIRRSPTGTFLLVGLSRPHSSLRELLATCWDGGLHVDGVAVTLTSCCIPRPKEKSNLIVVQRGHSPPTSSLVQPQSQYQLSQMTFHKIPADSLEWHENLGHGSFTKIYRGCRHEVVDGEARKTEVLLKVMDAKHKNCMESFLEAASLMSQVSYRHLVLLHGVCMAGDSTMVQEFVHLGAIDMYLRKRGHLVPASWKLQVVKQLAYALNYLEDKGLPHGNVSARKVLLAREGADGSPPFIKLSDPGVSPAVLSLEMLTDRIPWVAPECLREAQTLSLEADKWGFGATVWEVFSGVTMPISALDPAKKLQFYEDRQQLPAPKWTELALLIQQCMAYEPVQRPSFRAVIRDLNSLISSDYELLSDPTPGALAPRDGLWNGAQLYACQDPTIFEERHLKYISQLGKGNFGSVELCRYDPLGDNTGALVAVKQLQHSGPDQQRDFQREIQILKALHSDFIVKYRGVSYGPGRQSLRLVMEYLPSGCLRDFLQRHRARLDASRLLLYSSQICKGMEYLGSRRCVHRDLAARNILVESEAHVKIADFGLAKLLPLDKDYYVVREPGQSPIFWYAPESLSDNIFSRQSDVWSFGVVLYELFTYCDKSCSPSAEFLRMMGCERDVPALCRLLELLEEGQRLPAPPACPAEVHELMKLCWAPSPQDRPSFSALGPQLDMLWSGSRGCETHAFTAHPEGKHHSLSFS

[3] = target: Non-receptor tyrosine-protein kinase TYK2 (Homo sapiens, UniProt P29597)
Non-receptor tyrosine-protein kinase TYK2, sequence (P29597 whole entry): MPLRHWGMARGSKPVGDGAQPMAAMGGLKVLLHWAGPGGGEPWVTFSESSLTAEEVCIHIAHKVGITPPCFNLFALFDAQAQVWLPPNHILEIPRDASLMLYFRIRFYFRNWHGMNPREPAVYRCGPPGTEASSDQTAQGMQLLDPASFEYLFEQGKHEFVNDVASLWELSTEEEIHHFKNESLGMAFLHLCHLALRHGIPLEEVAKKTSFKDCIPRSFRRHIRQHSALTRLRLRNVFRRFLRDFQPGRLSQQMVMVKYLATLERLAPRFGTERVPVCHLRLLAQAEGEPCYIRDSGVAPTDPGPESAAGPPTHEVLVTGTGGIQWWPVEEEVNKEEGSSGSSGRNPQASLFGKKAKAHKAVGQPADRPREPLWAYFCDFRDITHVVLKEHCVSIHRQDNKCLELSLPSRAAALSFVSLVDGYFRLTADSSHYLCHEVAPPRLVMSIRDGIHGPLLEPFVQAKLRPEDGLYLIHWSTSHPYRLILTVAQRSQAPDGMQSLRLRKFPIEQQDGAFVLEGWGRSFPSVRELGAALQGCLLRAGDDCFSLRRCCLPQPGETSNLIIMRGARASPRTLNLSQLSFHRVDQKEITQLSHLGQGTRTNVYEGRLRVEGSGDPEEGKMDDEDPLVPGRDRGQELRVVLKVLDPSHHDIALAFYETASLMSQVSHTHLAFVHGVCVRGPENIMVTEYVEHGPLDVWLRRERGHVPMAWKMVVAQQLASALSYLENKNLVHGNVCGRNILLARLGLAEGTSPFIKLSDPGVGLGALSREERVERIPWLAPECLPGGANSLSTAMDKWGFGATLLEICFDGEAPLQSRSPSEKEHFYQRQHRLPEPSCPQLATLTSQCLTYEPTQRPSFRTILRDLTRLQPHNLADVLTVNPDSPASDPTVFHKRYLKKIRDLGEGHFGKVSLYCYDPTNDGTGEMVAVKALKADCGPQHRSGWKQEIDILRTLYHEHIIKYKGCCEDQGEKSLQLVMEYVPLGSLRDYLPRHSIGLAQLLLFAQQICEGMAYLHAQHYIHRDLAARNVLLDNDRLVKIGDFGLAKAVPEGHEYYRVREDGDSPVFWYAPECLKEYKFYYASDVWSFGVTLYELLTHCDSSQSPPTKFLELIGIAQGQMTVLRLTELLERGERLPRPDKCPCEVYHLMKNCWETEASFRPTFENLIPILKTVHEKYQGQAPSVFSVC

Tyrosine-protein kinase JAK2, sequence (O60674 whole entry): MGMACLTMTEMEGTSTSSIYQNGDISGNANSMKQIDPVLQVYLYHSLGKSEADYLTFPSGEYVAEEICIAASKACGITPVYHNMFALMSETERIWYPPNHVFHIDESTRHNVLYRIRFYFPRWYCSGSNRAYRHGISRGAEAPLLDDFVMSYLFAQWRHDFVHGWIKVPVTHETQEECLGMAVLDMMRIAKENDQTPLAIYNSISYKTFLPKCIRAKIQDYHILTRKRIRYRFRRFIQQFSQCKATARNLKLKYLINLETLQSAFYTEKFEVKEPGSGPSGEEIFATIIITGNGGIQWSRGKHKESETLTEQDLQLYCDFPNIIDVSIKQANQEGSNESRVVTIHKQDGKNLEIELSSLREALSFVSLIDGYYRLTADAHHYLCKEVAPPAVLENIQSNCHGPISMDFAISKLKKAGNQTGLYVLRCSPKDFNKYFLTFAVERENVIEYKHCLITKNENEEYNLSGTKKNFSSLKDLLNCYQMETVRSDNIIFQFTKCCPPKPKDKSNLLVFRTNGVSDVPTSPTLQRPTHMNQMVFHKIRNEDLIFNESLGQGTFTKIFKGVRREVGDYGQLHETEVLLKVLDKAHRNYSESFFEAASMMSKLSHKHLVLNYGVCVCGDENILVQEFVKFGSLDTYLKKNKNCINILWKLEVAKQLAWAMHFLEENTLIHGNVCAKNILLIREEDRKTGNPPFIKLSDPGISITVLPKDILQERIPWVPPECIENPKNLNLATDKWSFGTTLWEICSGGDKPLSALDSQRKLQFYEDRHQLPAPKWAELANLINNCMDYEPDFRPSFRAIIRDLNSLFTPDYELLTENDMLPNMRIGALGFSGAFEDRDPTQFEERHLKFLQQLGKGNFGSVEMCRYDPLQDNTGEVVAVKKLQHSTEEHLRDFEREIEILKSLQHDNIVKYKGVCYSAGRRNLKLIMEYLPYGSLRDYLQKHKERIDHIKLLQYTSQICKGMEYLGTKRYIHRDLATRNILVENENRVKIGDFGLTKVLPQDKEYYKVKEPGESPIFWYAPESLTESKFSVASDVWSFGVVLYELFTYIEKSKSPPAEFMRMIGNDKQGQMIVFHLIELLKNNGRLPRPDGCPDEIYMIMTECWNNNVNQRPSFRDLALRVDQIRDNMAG

C=CC(=O)N1[C@@H]2CC[C@H]1C[C@H](Oc1cc(-c3ccc(O)cc3)cn3cncc13)C2 [US10851102, Example 10]
Ki [1]: > 100 nM | Ki [2]: < 0.1 nM | Ki [3]: > 100 nM
